For 19 compounds, AC50 and EC50 results are on record in US12344610B2, “APOL1 inhibitors and methods of use” (Maze Therapeutics, Inc., priority 2022, dated 2025).

One assay addresses T1, APOL1 G2 (Homo sapiens, UniProt O14791, DEL388-389).
T1 construct: expressed in transfected cells; host or cells: HEK293 T-REx clonal line stably expressing GCaMP6f (HEK T-REx/GCaMP6f/APOL1 G2 K6.3), doxycycline induced
T1 sequence (O14791 with tags, fused parts or gaps DEL388-389): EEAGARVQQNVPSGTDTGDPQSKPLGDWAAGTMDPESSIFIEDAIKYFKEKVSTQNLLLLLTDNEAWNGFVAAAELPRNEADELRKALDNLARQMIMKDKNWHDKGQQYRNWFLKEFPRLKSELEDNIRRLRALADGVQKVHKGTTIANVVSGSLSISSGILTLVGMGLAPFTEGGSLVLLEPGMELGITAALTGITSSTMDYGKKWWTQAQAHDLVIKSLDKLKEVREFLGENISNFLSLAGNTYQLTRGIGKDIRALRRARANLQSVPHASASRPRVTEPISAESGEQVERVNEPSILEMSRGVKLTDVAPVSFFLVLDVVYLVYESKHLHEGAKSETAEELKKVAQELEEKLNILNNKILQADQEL
Put plainly: APOL1-mediated calcium transport (calcium influx) assay, HEK T-REx/GCaMP6f/APOL1 G2 K6.3 cells, FLIPR TETRA. Type of assay: cell-based. As to conditions: prevention of calcium influx; geometric mean of at least 2 assay runs; † = average of a technical replicate from a single assay run. Put shortly:
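A HEK293 T-REx clone stably expressing GCaMP6f had APOL1 G2 induced with doxycycline (20 ng/mL solution added) for 6 h. Cells were then washed into Ca2+-free Tyrode's buffer (pH 7.4) and preincubated with compounds (duplicate 8-point) for 10 min at room temperature. Ca2+ injection to 5 mM final produced FLIPR GCaMP fluorescence, giving AC50 for influx inhibition (geometric mean, ≥2 runs).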

Assay [1] relates to HEK293 cells overexpressing APOL1 G2. Put plainly: APOL1 G2 HEK293 cell rescue assay (reversal of cell death caused by overexpression of APOL1). Type of assay: cell-based. As to conditions: geometric mean of at least 2 assay runs, † = single assay run. Put shortly:
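EC50 is the half-maximal effective concentration for reversing cell death driven by APOL1 G2 overexpression in HEK293 cells. Reported as geometric mean of at least 2 runs on separate days, each run averaging duplicate wells per plate; some values from a single run.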

Where [2] appears, read: Homo sapiens, HEK293, HEK293 overexpressing APOL1 G2.

In general, AC50 refers to the midpoint of the concentration-response curve, whichever way the signal moves. The EC50 is the concentration that produces a half-maximal response.

In the case of `CC(c1ccc(OCCN2CCC3(CC2)C(=O)Nc2ccc(Cl)cc23)cc1)S(C)(=O)=O` (single isomer, unassigned) [Compound 39, 5-chloro-1′-(2-{4-[(1S) or (1R)-1-methanesulfonylethyl]phenoxy}ethyl)-1,2-dihydrospiro[indole-3,4′-piperidin]-2-one], the AC50 on APOL1 G2 worked out at 745 nM. In addition, in assay [1] (setting [2]), the EC50 was found to be 56.7 nM.
The like results for `O=C1CCc2cc(OCCN3CCC4(CC3)C(=O)Nc3ccc(Cl)cc34)cnc2N1[C@H]1C[C@@H](CO)C1` (single isomer, unassigned) [Compound 319, 5-chloro-1′-[2-({7-oxo-8-[(cis)-3-(hydroxymethyl)cyclobutyl]-5,6,7,8-tetrahydro-1,8-naphthyridin-3-yl}oxy)ethyl]-1,2-dihydrospiro[indole-3,4′-piperidin]-2-one] were, in that order, 378 nM and 41.9 nM.
The like results for `CC[C@]1(O)C[C@@H](N2C(=O)CCc3cc(OCCN4CCC5(CC4)C(=O)Nc4ccc(Cl)cc45)cnc32)C1` (single isomer, unassigned) [Compound 321, 5-chloro-1′-[2-({7-oxo-8-[(cis)-3-ethyl-3-hydroxycyclobutyl]-5,6,7,8-tetrahydro-1,8-naphthyridin-3-yl}oxy)ethyl]-1,2-dihydrospiro[indole-3,4′-piperidin]-2-one] were, in that order, 621 nM and 24.1 nM.
For `CC1(O)CC(CN2C(=O)CCc3cc(OCCN4CCC5(CC4)C(=O)Nc4ccc(Cl)cc45)cnc32)C1` (single isomer, unassigned) [Compound 322, 5-chloro-1′-{2-[(7-oxo-8-{[(trans) or (cis)-3-hydroxy-3-methylcyclobutyl]methyl}-5,6,7,8-tetrahydro-1,8-naphthyridin-3-yl)oxy]ethyl}-1,2-dihydrospiro[indole-3,4′-piperidin]-2-one], the half-maximal activity concentration (AC50) on APOL1 G2 was determined as 588 nM. Further, the concentration for a half-maximal effect (EC50) in assay [1] (HEK293 overexpressing APOL1 G2) is 18.5 nM.
Regarding `C[C@]1(O)C[C@@H](n2ncc3cc(OCCN4CCC5(CC4)C(=O)Nc4ccc(Cl)cc45)cnc32)C1` (single isomer, unassigned) [Compound 357, 5-chloro-1′-[2-({1-[(cis)-3-hydroxy-3-methylcyclobutyl]-1H-pyrazolo[3,4-b]pyridin-5-yl}oxy)ethyl]-1,2-dihydrospiro[indole-3,4′-piperidin]-2-one], the concentration at half-maximal activity (AC50) at APOL1 G2 was 412 nM. Further, the EC50 in assay [1] (setting [2]) was 22.3 nM.
As for `CC1(O)CC(c2ncc(OCCN3CCC4(CC3)C(=O)Nc3ccc(Cl)cc34)cn2)C1` (single isomer, unassigned) [Compound 393, 5-chloro-1′-[2-({2-[(cis) or (trans)-3-hydroxy-3-methylcyclobutyl]pyrimidin-5-yl}oxy)ethyl]-1,2-dihydrospiro[indole-3,4′-piperidin]-2-one], the half-maximal activity concentration (AC50) at APOL1 G2 worked out at 1060 nM. Further, the EC50 in assay [1] (HEK293 overexpressing APOL1 G2) turned out to be 80.5 nM.
`C[C@]1(O)C[C@H](n2ncc3cc(OCCN4CCC5(CC4)C(=O)Nc4ccc(Cl)cc45)cnc32)C1` (single isomer, unassigned) [Compound 408, 5-chloro-1′-[2-({1-[(trans)-3-hydroxy-3-methylcyclobutyl]-1H-pyrazolo[3,4-b]pyridin-5-yl}oxy)ethyl]-1,2-dihydrospiro[indole-3,4′-piperidin]-2-one]: the AC50 at APOL1 G2 came to 283 nM. Moreover, the concentration for a half-maximal effect (EC50) in assay [1] (setting [2]) was 23.1 nM.
The like results for `C[C@]1(O)C[C@@H](N2C(=O)CCc3cc(OCCN4CCC5(CC4)C(=O)Nc4ccc(OC(F)F)cc45)cnc32)C1` [Cmpd 325, 5-(difluoromethoxy)-1′-[2-({7-oxo-8-[(cis)-3-hydroxy-3-methylcyclobutyl]-5,6,7,8-tetrahydro-1,8-naphthyridin-3-yl}oxy)ethyl]-1,2-dihydrospiro[indole-3,4′-piperidin]-2-one] were, in that order, 791 nM and 86.4 nM.
For `CC(c1ncc(OCCN2CCC3(CC2)C(=O)Nc2ccc(Cl)cc23)cn1)S(C)(=O)=O` (centres unmarked) [Compound 1, 5-Chloro-1′-(2-{[2-(1-methanesulfonylethyl)pyrimidin-5-yl]oxy}ethyl)-1,2-dihydrospiro[indole-3,4′-piperidin]-2-one] the same measures were 703 nM and 120 nM.
For `CS(=O)(=O)C1(c2ncc(OCCN3CCC4(CC3)C(=O)Nc3ccc(Cl)cc34)cn2)CC1` [Compound 4, 5-chloro-1′-(2-{[2-(1-methanesulfonylcyclopropyl)pyrimidin-5-yl]oxy}ethyl)-1,2-dihydrospiro[indole-3,4′-piperidin]-2-one] the same measures were 670 nM and 71.9 nM.
As to `Cc1nc(-c2ccc(OCCN3CCC4(CC3)C(=O)N(C)c3ccccc34)cc2)no1` [Compound 35, 1-methyl-1′-{2-[4-(5-methyl-1,2,4-oxadiazol-3-yl)phenoxy]ethyl}-1,2-dihydrospiro[indole-3,4′-piperidin]-2-one], the AC50 on APOL1 G2 was 142 nM. Besides, the EC50 in assay [1] (setting [2]) was 574 nM.
For the compound `CC(=O)N1CCCc2cc(OCCN3CCC4(CC3)C(=O)N(C)c3ccccc34)ccc21` [Compound 36, 1′-{2-[(1-acetyl-1,2,3,4-tetrahydroquinolin-6-yl)oxy]ethyl}-1-methyl-1,2-dihydrospiro[indole-3,4′-piperidin]-2-one], the AC50 at APOL1 G2 came out at 223 nM. Moreover, the EC50 in assay [1] (setting [2]) was 919 nM.
For `CS(=O)(=O)c1c(F)cc(OCCN2CCC3(CC2)C(=O)Nc2ccccc23)cc1F` [Compound 42, 1′-[2-(3,5-difluoro-4-methanesulfonylphenoxy)ethyl]-1,2-dihydrospiro[indole-3,4′-piperidin]-2-one], the AC50 at APOL1 G2 came out at 316 nM. Besides, the EC50 in assay [1] (setting [2]) was 343 nM.
The like results for `O=C1Nc2ccc(Cl)cc2C12CCN(CCOc1ccc(S(=O)(=O)C3CC3)cc1)CC2` [Compound 43, 5-chloro-1′-{2-[4-(cyclopropanesulfonyl)phenoxy]ethyl}-1,2-dihydrospiro[indole-3,4′-piperidin]-2-one] were, in that order, 507 nM and 33.1 nM.
The like results for `O=C1Nc2ccccc2C12CCN(CCOc1ccc(S(=O)(=O)C(F)F)cc1)CC2` [Compound 44, 1′-[2-(4-difluoromethanesulfonylphenoxy)ethyl]-1,2-dihydrospiro[indole-3,4′-piperidin]-2-one] were, in that order, 352 nM and 116 nM.
For `NC(=O)c1ccc(OCCN2CCC3(CC2)C(=O)Nc2ccc(Cl)cc23)cc1` [Compound 45, 4-(2-{5-chloro-2-oxo-1,2-dihydrospiro[indole-3,4′-piperidin]-1′-yl}ethoxy)benzamide] the same measures were 746 nM and 122 nM.
For the compound `NC(=O)c1ccc(OCCN2CCC3(CC2)C(=O)Nc2ccc(Cl)cc23)cc1F` [Compound 46, 4-(2-{5-chloro-2-oxo-1,2-dihydrospiro[indole-3,4′-piperidin]-1′-yl}ethoxy)-2-fluorobenzamide], on APOL1 G2, the half-maximal activity concentration (AC50) amounted to 434 nM. Moreover, the 50% effective concentration (EC50) in assay [1] (setting [2]) is 72.8 nM.
For `Cc1cc(OCCN2CCC3(CC2)C(=O)Nc2ccc(Cl)cc23)ccc1C(N)=O` [Compound 49, 4-(2-{5-chloro-2-oxo-1,2-dihydrospiro[indole-3,4′-piperidin]-1′-yl}ethoxy)-2-methylbenzamide] the same measures were 875 nM and 66.4 nM.
For `CS(=O)(=O)c1ccc(OCCN2CCC3(CC2)C(=O)Nc2ccc(Cl)cc23)cc1C#N` [Compound 50, 5-(2-{5-chloro-2-oxo-1,2-dihydrospiro[indole-3,4′-piperidin]-1′-yl}ethoxy)-2-methanesulfonylbenzonitrile] the same measures were 622 nM and 24.9 nM.
